Legend:
[1] = Single dose pharmacokinetic evaluation of formulations in male Sprague Dawley rats; type: in vivo; conditions: plasma, iv, rat
Method: Single dose pharmacokinetic evaluations of formulations F12-F22 were carried out using male Sprague Dawley rats using conditions as described in Table 1.
Animal ID's were labelled by pen marks on tail and body weight was recorded for calculation of test item volume before administration. Blood was collected capillary from vena saphena from the rats in EDTA coated collection tubes and centrifuged for five minutes at 2000G. Plasma was transferred to pre-labelled Eppendorf tubes and immediately stored in −20° C. The pharmacokinetic analysis was performed using PK Solutions 2.0™, Noncompartmental Pharmacokinetic Data Analysis software.
Cmax (nM) is the maximum concentration. AUC 0-24 (nM*h) is the area under the curve over 24 hours. Tmax (h) is the maximum time in hours. F % is bioavailability. Frel % is the relative bioavailability.

[2] = Single ascending dose (SAD) study, pharmacokinetics in healthy male subjects; type: in vivo, human
Method: Lipid formulations containing PHOSAL® 53 MCT delivered higher exposure in rat and dog when compared to other formulation (e.g., nanosuspension formulation and PEG formulations). […] Formulation 1H containing 70% PHOSAL® 53 MCT and 30% Labrasol® ALF was selected for manufacturing of soft gelatin capsules for clinical trials with a drug formulation fill weight of 500 mg and a total capsule weight is 696 mg. Two dose strength (0.1 mg/subject and 2 mg/subject) and placebo were produced according to GMP for clinical testing.
The clinical development programme in healthy volunteers started with a double-blind, randomised, placebo controlled single ascending dose (SAD) study in males. Seven dose cohorts received increasing oral doses of Compound (1a) or placebo, dose range 0.05-2 mg. Each cohort consisted of 5-6 subjects receiving Compound (1a) and 2 subjects receiving placebo, with the primary objective to evaluate safety and tolerability, the secondary objective being evaluation of pharmacokinetics (PK).
A summary of PK results from the SAD study are shown below in Table 8.

[3] = system: benzodiazepine site of the GABAA receptor complex; conditions: cited from earlier work

In the case of `Cc1ccc(-n2nc3c4cc(Cc5ccccc5)ccc4[nH]c(=O)n3c2=O)cc1` [Compound (1a), 9-benzyl-2-(4-methylphenyl)-2,6-dihydro[1,2,4]triazolo[4,3-c]quinazoline-3,5-dione], the bioavailability ([1]; intravenously 1 mg/kg (reference), read-out: F % (bioavailability)) was 100%, the AUC(0-t) ([1]; intravenously 1 mg/kg, read-out: AUC 0-24) was 1.18 µM·h and the “dose proportionality of Cmax” value ([2]; dose range 0.05 mg-2 mg) was “dose proportional”. For the same compound, the “dose proportionality of exposure” value ([2]; dose range 0.05 to 2 mg, oral soft gelatin capsules, fasting healthy male volunteers) was “close to dose proportional”, the selectivity [3] was “selective for the GABAA receptor complex” and the “inhibition of 3H-Flumazenil binding” value ([3]; rat membrane preparations) was “very potent inhibitor”. The “potency in displacing 3H-Flumazenil relative to diazepam” value ([3]; rat membrane preparations, more potent than diazepam) was 10 times.

Reference: patent US20230372348A1, “LIPID FORMULATIONS OF TRIAZOLOQUINAZOLINONE COMPOUNDS” (Gabather AB, priority 2020, published 2023)
